From patent publication US20120172408A1, “ACTIVE INGREDIENT COMPRISING INDOCYANINE GREEN AND/OR INFRACYANINE GREEN” (A.R.C. LASER GMBH, priority 2011, published 2012)

Tested on: microscopic organisms
Test: Antimicrobial effect of ICG under irradiation with light (photodynamic), infections on gingiva and teeth
Details: more particularly laser light, wavelength 780 to 830 nm

SMILES: CC1(C)C(/C=C/C=C/C=C/C=C2\N(CCCCS(=O)(=O)O)c3ccc4ccccc4c3C2(C)C)=[N+](CCCCS(=O)(=O)[O-])c2ccc3ccccc3c21 [ICG, Indocyanine green]
- effect against microscopic organisms, more particularly an antimicrobial effect: outstanding effect
